The values that follow come from patent US6869949B2, “Polysubstituted imidazopyridines as gastric secretion inhibitors” (Altana Pharma AG, priority 2000, dated 2005).

The subject of the first series is acid secretion stimulated by pentagastrin of the perfused rat stomach. Put plainly: Testing of the secretion-inhibiting action on the perfused rat stomach. As to conditions: dose 3 μmol/kg i.d., anesthetized CD rats, perfused stomach in vivo. As to the method:
The abdomen of anesthetized rats (CD rats, female, 200-250 g; 1.5 g/kg i.m. urethane) was opened after tracheotomy by means of a median upper abdominal incision and a PVC catheter was fixed transorally in the esophagus and a further catheter via the pylorus such that the ends of the tubing just projected into the gastric lumen. The catheter leading from the pylorus led outwards through a side opening in the right abdominal wall.
After thorough rinsing (about 50-100 ml), warm physiological NaCl solution at 37° C. was continuously passed through the stomach (0.5 ml/min, pH 6.8-6.9; Braun-Unita I). The pH (pH meter 632, glass electrode EA 147; φ=5 mm, Metrohm), and, by titration with a freshly prepared 0.01 N NaOH solution to pH 7 (Dosimat 665 Metrohm), the secreted HCl were determined in the effluent in each case collected at an interval of 15 minutes.
The gastric secretion was stimulated by continuous perfusion of 1 μg/kg (=1.65 ml/h) of i.v. pentagastrin (left femoral vein) about 30 min after the end of the operation (i.e. alter determination of 2 preliminary fractions). The substances to be tested were administered intraduodenally in 2,5 ml/kg of liquid volume 60 min after the start of the pentagastrin continuous infusion.
The body temperature of the animals was kept at a constant 37.8-38° C. by infrared irradiation and heat pads (automatic, stepless control by means of rectal temperature sensors).
Consider `COCCOCCO[C@@H]1c2ccn3c(C)c(C)nc3c2N[C@H](c2ccccc2)[C@H]1O` [Example 8, (7R,8R,9R)-8-Hydroxy-7-[2-(2-methoxyethoxy)ethoxy]-2,3-dimethyl-9-phenyl-7,8,9,10-tetrahydroimidazo[1,2-h][1,7]naphthyridine], for which the “Inhibition of acid secretion (%)” value is given as 100%.
For `COCCOCCO[C@H]1c2ccn3c(C)c(C)nc3c2N[C@H](c2ccccc2)[C@H]1O` [Example 9, (7S,8R,9R)-8-Hydroxy-7-[2-(2-methoxyethoxy)ethoxy]2,3-dimethyl-9-phenyl-7,8,9,10-tetrahydroimidazo[1,2-h][1,7]naphthyridine], the “Inhibition of acid secretion (%)” value was 100%.
Consider `Cc1cn2ccc3c(c2n1)N[C@H](c1ccccc1)[C@@H](O)[C@@H]3O` [Example 11, (7R,8R,9R)-7,8-Dihydroxy-2-methyl-9-phenyl-7,8,9,10-tetrahydroimidazo[1,2-h][1,7]naphthyridine], for which the “Inhibition of acid secretion (%)” value is 100%.
Take `COCCO[C@H]1c2ccn3cc(C)nc3c2N[C@H](c2ccccc2)[C@H]1O` [Example 12a, (7S,8R,9R)-8-hydroxy-2-methyl-7-(2-methoxyethoxy)-9-phenyl-7,8,9,10-tetrahydroimidazo[1,2-h][1,7]naphthyridine]: the “Inhibition of acid secretion (%)” value stood at 100%.
Turning to `COCCO[C@@H]1c2ccn3cc(C)nc3c2N[C@H](c2ccccc2)[C@H]1O` [Example 12b, (7R,8R,9R)-8-hydroxy-2-methyl-7-(2-methoxyethoxy)-9-phenyl-7,8,9,10-tetrahydroimidazo[1,2-h][1,7]-naphthyridine], the “Inhibition of acid secretion (%)” value came out at 100%.
Turning to `COCCO[C@@H]1c2ccn3c(Br)c(C)nc3c2N[C@H](c2ccccc2)[C@H]1O` [Example 13, (7R,8R,9R)-3-Bromo-8-hydroxy-7-(2-methoxyethoxy)-2-methyl-9-phenyl-7,8,9,10-tetrahydroimidazo[1,2-h][1,7]naphthyridine], the “Inhibition of acid secretion (%)” value turned out to be 100%.
With `COCCO[C@@H]1c2ccn3c(Cl)c(C)nc3c2N[C@H](c2ccccc2)[C@H]1O` [Example 14, (7R,8R,9R)-3-Chloro-8-hydroxy-7-(2-methoxyethoxy)-2-methyl-9-phenyl-7,8,9,10-tetrahydroimidazo[1,2-h][1,7]naphthyridine], the “Inhibition of acid secretion (%)” value worked out at 100%.
On the same count and under the same terms, with `COCCO[C@@H]1c2ccn3c(Cl)c(C)nc3c2O[C@H](c2ccccc2)[C@@H]1O` [Example 16, (7R,8R,9R)-3-Chloro-8-hydroxy-7-(2-methoxyethoxy)-2-methyl-9-phenyl-7H-8,9-dihydro-pyrano[2,3-c]imidazo[1,2-a]pyridine] the figure was 100%; with `COCCO[C@@H]1c2ccn3cc(C)nc3c2O[C@H](c2ccccc2)[C@@H]1O` [Example 17, (7R,8R,9R)-8-Hydroxy-7-(2-methoxyethoxy)-2-methyl-9-phenyl-7H-8,9-dihydro-pyrano[2,3-c]imidazo[1,2-a]pyridine], 100%; with `Cc1cn2ccc3c(c2n1)O[C@H](c1ccccc1)[C@H](O)[C@@H]3O` [Example 18, (7R,8R,9R)-7,8-Dihydroxy-2-methyl-9-phenyl-7H-8,9-dihydropyrano[2,3-c]imidazo[1,2-a]pyridine], 100%.
Take `CO[C@@H]1c2ccn3cc(C)nc3c2N[C@H](c2ccccc2)[C@H]1O` [Example 20, (7R,8R,9R)-8-Hydroxy-7-methoxy-2-methyl-9-phenyl-7,8,9,10-tetrahydroimidazo[1,2-h][1,7]naphthyridine]: the “Inhibition of acid secretion (%)” value is listed as 100%.
With `CO[C@H]1c2ccn3cc(C)nc3c2N[C@H](c2ccccc2)[C@H]1O` [Example 21, (7S,8R,9R)-8-Hydroxy-7-methoxy-2-methyl-9-phenyl-7,8,9,10-tetrahydroimidazo[1,2-h][1,7]naphthyridine], the “Inhibition of acid secretion (%)” value amounted to 100%.
Regarding `COCCO[C@@H]1c2ccn3c(CO)c(C)nc3c2N[C@H](c2ccccc2)[C@H]1O` [Example 22, (7R,8R,9R)-3-Hydroxymethyl-8-hydroxy-7-(2-methoxyethoxy)-2-methyl-9-phenyl-7,8,9,10-tetrahydroimidazo[1,2-h][1,7]naphthyridine], the “Inhibition of acid secretion (%)” value turned out to be 100%.

System in another series: not given
Test: not given
Settings: not given
As to `Cc1nc2c3c(ccn2c1C)C(=O)C(O)C(c1ccsc1)N3` (centres unmarked) [Example 1, 8-Hydroxy-2,3-dimethyl-9-(3-thienyl)-7,8,9,10-tetrahydroimidazo[1,2-h][1,7]naphthyridin-7-one], the melting point (as a rule, the temperature of the solid-liquid transition) fell in the range of 222 to 225 °C.
On to `Cc1nc2c3c(ccn2c1C)C(O)C(O)C(c1ccsc1)N3` (centres unmarked) [Example 2, 7,8-Dihydroxy-2,3-dimethyl-9-(3-thienyl)-7,8,9,10-tetrahydroimidazo[1,2-h][1,7]naphthyridine], for which the melting point lay in the range of 134 to 138 °C.
Regarding `Cc1nc2c3c(ccn2c1C)C(=O)CC(c1ccsc1)N3` (centres unmarked) [Example 3, 2,3-Dimethyl-9-(3-thienyl)-7,8,9,10-tetrahydroimidazo[1,2-h][1,7]naphthyridin-7-one], the melting point lay in the range of 176 to 177 °C.
In turn, `Cc1nc2c3c(ccn2c1C)C(O)CC(c1ccsc1)N3` (centres unmarked) [Example 4, 7-Hydroxy-2,3-dimethyl-9-(3-thienyl)-7,8,9,10-tetrahydroimidazo[1,2-h][1,7]naphthyridine] registered a melting point of 192 to 194 °C.
For `Cc1nc2c3c(ccn2c1C)C(O)CC(c1ccoc1)N3` (centres unmarked) [Example 7, 9-(3-Furyl)-7-hydroxy-2,3-dimethyl-7,8,9,10-tetrahydroimidazo[1,2-h][1,7]naphthyridine], the melting point was 221 to 222 °C.
With `Cc1cn2ccc3c(c2n1)N[C@H](c1ccccc1)[C@@H](O)[C@@H]3O` [Example 11, (7R,8R,9R)-7,8-Dihydroxy-2-methyl-9-phenyl-7,8,9,10-tetrahydroimidazo[1,2-h][1,7]naphthyridine], the melting point was 119 °C (dec.).
Molecule `COCCO[C@@H]1c2ccn3c(Br)c(C)nc3c2N[C@H](c2ccccc2)[C@H]1O` [Example 13, (7R,8R,9R)-3-Bromo-8-hydroxy-7-(2-methoxyethoxy)-2-methyl-9-phenyl-7,8,9,10-tetrahydroimidazo[1,2-h][1,7]naphthyridine] showed a melting point of 153 to 154 °C.
Molecule `COCCO[C@@H]1c2ccn3c(Cl)c(C)nc3c2N[C@H](c2ccccc2)[C@H]1O` [Example 14, (7R,8R,9R)-3-Chloro-8-hydroxy-7-(2-methoxyethoxy)-2-methyl-9-phenyl-7,8,9,10-tetrahydroimidazo[1,2-h][1,7]naphthyridine] displayed a melting point of 123 to 126 °C.
With `COCCO[C@@H]1c2ccn3c(CO)c(C)nc3c2N[C@H](c2ccccc2)[C@H]1O` [Example 22, (7R,8R,9R)-3-Hydroxymethyl-8-hydroxy-7-(2-methoxyethoxy)-2-methyl-9-phenyl-7,8,9,10-tetrahydroimidazo[1,2-h][1,7]naphthyridine], the melting point lay in the range of 180 to 183 °C.
Molecule `COCCO[C@@H]1c2ccn3c(-c4ccccc4)c(C)nc3c2N[C@H](c2ccccc2)[C@H]1O` [Example 25, (7R,8R,9R)-3,9-Diphenyl-8-hydroxy-7-(2-methoxyethoxy)-2-methyl-7,8,9,10-tetrahydroimidazo[1,2-h][1,7]naphthyridine] yielded a melting point of 190 to 192 °C.
In turn, `COCc1nc2c3c(ccn2c1C)C(=O)[C@H](O)[C@@H](c1ccccc1)N3` [Example 26, (8R,9R)-8-Hydroxy-2-methoxymethyl-3-methyl-9-phenyl-7,8,9,10-tetrahydroimidazo[1,2-h][1,7]naphthyridin-7-one] gave a melting point of 168 to 173 °C.
With `COCc1nc2c3c(ccn2c1C)[C@@H](O)[C@H](O)[C@@H](c1ccccc1)N3` [Example 27, (7R,8R,9R)-7,8-Dihydroxy-2-methoxymethyl-3-methyl-9-phenyl-7,8,9,10-tetrahydroimidazo[1,2-h][1,7]naphthyridine], the melting point fell in the range of 102 to 104 °C.
Take `COCCO[C@H]1c2ccn3c(C)c(COC)nc3c2N[C@H](c2ccccc2)[C@H]1O` [Example 28a, (7S,8R,9R)-8-hydroxy-7-(2-methoxyethoxy)-2-methoxymethyl-3-methyl-9-phenyl-7,8,9,10-tetrahydroimidazo[1,2-h][1,7]naphthyridine]: the melting point was 63 to 65 °C.
